# Measured values as given in patent US7553826B2, “Cytarabine monophosphate prodrugs” (Metabasis Therapeutics, Inc., priority 2002, dated 2009).
# Several values for one entry are separate records, joined by “and”; a condition that tells them apart may be missing. Equal values may be shown once.
# Experiment: Single dose i.p. bolus liver levels / liver targeting in mice
# Description: At specified times post injection, mice were anesthetized and exsanguinated via cardiac puncture. The whole liver was removed, and snap-frozen in liquid nitrogen, and homogenized using a Polytron homogenizer PT 10/35 (Brinkmann Instruments, Westbury, N.Y.) in 3 volumes of 10% (v/v) perchloric acid (PCA). After a 5 min centrifugation at 2,500×g, 1 mL of supernatant was neutralized using 0.3 mL 3 M KOH/3 M KHCO3 and mixed thoroughly. Samples were then centrifuged for 5 minutes and resulting supernatants were treated with periodate in order to remove endogenous ribonucleotides which otherwise might interfere with araCTP detection. […] Resulting samples were analyzed by HPLC as described below.
# To measure bone marrow araCTP, the bone marrow samples were flushed from the marrow cavities of femurs with 1.2 ml saline into pre-weighed Eppendorf tubes. After centrifugation for 20-30 seconds (Eppendorf microfuge, 14,000 rpm) and removal of the supernatant, 12 volumes of 3% PCA (v/v) were added to the bone marrow cell pellets. Samples were then vortexed until the pellet was well dissolved and centrifuged as above for 10 min. Ninety μL of extracted supernatant was neutralized to pH 7-8 using 30 μL 1 M KOH/1 M KHCO3 and again centrifuged. Resulting supernatants were periodate-treated as above.
# Samples (50 μL) were injected onto the column in 70% 10 mM ammonium phosphate buffer and 30% 1 M ammonium phosphate buffer, both at pH 3.5 and containing 6% ethanol. […] A standard curve was prepared by adding known amounts of araCTP into PCA extracts from control liver or bone marrow prior to neutralizing, and preparing HPLC samples accordingly.
# To obtain plasma, blood was transferred to heparinized micro-collection tubes and centrifuged in an Eppendorf microfuge at 14,000 rpm for 2 minutes. Resulting plasma was collected, placed on dry ice, and subsequently stored at −20° C. On the day of analysis, proteins were precipitated by adding 1 mL acetonitrile to 100 μL of plasma. After 10 min centrifugation (Eppendorf microfuge, 14,000 rpm), the supernatant was removed and dried in a Savant SpeedVac Plus SC110A. Samples were reconstituted with 110 μL of mobile phase buffer (20 mM KH2PO4, pH 4.5), sonicated for 5 min, and centrifuged for 30 seconds. […] AraC and prodrugs were detected by absorbance at 280 nm and quantitated using standard curves obtained with spiked plasma samples processed as above.
# Results are expressed as mean±standard error of the mean. Data were analyzed by repeated measures ANOVA, followed by the Tukey HSD post-hoc test for comparisons at individual time points when appropriate. A p-value of less than 0.05 was considered statistically significant. Dotted lines in figures indicate LOQ (limit of quantitation) using the indicated HPLC method.
# In those studies, liver, plasma and bone marrow samples were obtained at necropsy to evaluate liver targeting.
# Results are expressed as mean±standard error of the mean. When appropriate, AUC was calculated from time zero to the last time-point of the study. Liver targeting indices (LTIs) were calculated by dividing the liver araCTP AUC by the AUC for plasma araC (plasma LTI) or by the AUC for bone marrow araCTP (bone marrow LTI) for each compound. For the continuous infusion studies, the steady state araCTP levels were divided by the steady state plasma araC levels.
smiles,measurement,setting,value
"Nc1ccn([C@@H]2O[C@H](CO[P@@]3(=O)OCC[C@@H](c4ccncc4)O3)[C@@H](O)[C@@H]2O)c(=O)n1 [Compound A, 2(1H)-Pyrimidinone, 4-amino-1-[5-O-[(2R,4S)-2-oxido-4-(4-pyridinyl)-1,3,2-dioxaphosphorinan-2-yl]-β-D-arabinofuranosyl]]",Liver araCTP Peak @ 1 hr,"Mouse, 100 mg (cytarabine equivalents)/kg single IP injection",96 nmol/g and 70 nmol/g
same,LTI (Liver/plasma),"Mouse, 100 mg CE/kg single IP, liver araCTP AUC / plasma araC AUC",27 nmol/g/μM and 19.5 nmol/g/μM
same,reduction of peripheral exposure (liver targeting),administered intraperitoneally,~20 fold
same,liver araCTP levels relative to Compound B,"mice, bolus i.p. injection",~2 fold
same,plasma araC levels relative to Compound B,"mice, bolus i.p. injection",~2 fold
same,liver araCTP peak at 60 minutes post injection,"mice, single i.p. bolus, 100 mg/kg CE",69.89 ± 6.37 nmol/g
